What all share (type): cell-based, mouse
Test [1] has as its system N2a cells. Briefly: Soluble Aβ42 levels by sandwich ELISA. The settings on record: vs N2a cells treated only with Aβ42. Here is the method: (§1) Tissue culture: The N2a cells were grown for 3 days in a serum-free medium (1:1 mixture of DMEM and OptiMEM, plus penicillin and streptomycin [Invitrogen, Carlsbad, Calif., USA]) until the cells developed neuronal processes.
Briefly, protein lysates from untreated control N2a cells and lysates from 4 treatment groups were homogenized in a Tris-buffered saline (pH 8.0) containing protease inhibitors ([…] pepstatin A, aprotinin, phophsoramidon, and leupeptin; 0.5 mM phenylmethanesulfonyl fluoride and 1 mM ethyleneglycol-bis(flaminoethyl ether)-NN tetraacetic acid). Samples were sonicated briefly and centrifuged at 10,000 g for 20 min at 4° C. The soluble fraction was used to determine the soluble Aβ by ELISA. For each sample, Aβ1-40 and Aβ1-42 were measured with commercial colorimetric ELISA kits (Biosource International, Camarillo, Calif., USA) that were specific for each species. A 96-well plate reader was used, following the manufacturer's instructions. Each sample was run in duplicate. Protein concentrations of the homogenates were determined following the […], and Aβ was expressed as pg Aβ/mg protein.
A general note: An ELISA detects its analyte on a solid surface through an enzyme-linked reagent.

For test [2], the system named is N2a cells. Briefly: Cytochrome c oxidase activity. Here is the method: as §1
Cytochrome c oxidase activity: Cytochrome oxidase activity was measured in each of the 5 groups of N2a cells. Enzyme activity was assayed spectrophotometrically using a Sigma Kit (Sigma-Aldrich) following manufacturer's instructions. […] The decrease in absorbance at […] was recorded for 1-min reactions at 10-sec intervals. Cytochrome oxidase activity was measured according to the following formula: mU/mg total mitochondrial protein=(A/min sample−(A/min blank)×1.1 mg protein×21.84). The protein concentrations were determined following the BCA method.

Test [3] relates to N2a cells. Briefly: Lipid peroxidation assay (4-hydroxy-2-nonenol, HNE-His ELISA). Here is the method:
as §1
Lipid peroxidation assay: Lipid peroxidates are unstable indicators of oxidative stress in the brain. The final product of lipid peroxidation is 4-hydroxy-2-nonenol (HNE), which was measured in the N2a cell lysates prepared from cell pellets of control and treatment groups. The inventors used an HNE-His ELISA kit (Cell BioLabs, Inc., San Diego, Calif., USA), as described in Manczak and Reddy. Briefly, freshly prepared protein as added to a 96-well protein binding plate and incubated overnight at 4° C. The protein then washed 3 times with a buffer. After the last wash, the anti-HNE-His antibody was added to the protein in the wells, incubated for 2 hours at room temperature, and then washed again 3 times. The samples were then incubated with a secondary antibody conjugated with peroxidase for 2 hours at room temperature, followed by incubation with an enzyme substrate. Optical density was measured (at 450 nm) to quantify the level of HNE.

The next test relates to N2a cell mitochondria. Briefly: Mitochondrial ATP levels (luciferase bioluminescence). As to conditions: N2a cells. The protocol:
as §1
ATP levels: ATP levels were measured in N2a cell mitochondria from the treatment groups using an ATP determination kit (Molecular Probes). A bioluminescence assay was used, based on the reaction of ATP with recombinant firefly luciferase and its substract luciferin. Luciferase catalyzes the formation of light from ATP and luciferin. It is the emitted light that is linearly related to the concentration of ATP, which is measured with a luminometer. ATP levels were measured from mitochondrial pellets using a standard curve method.

Where [4] appears, read: Mdivi1 24 hrs or Aβ42 20 μM 6 hrs alone, vs untreated N2a cells.

Structures are written as SMILES. “Also recorded” adds a separate entry of the source.

The values below come from patent US20190307749A1, “Mitochondria-Division Inhibitor 1 Protects Against Amyloid-B Induced Mitochondrial Fragmentation and Synaptic Damage in Alzheimer's Disease” (Texas Tech University System, priority 2018, published 2019).

In the case of `COc1cc(-n2c(S)nc3ccccc3c2=O)c(Cl)cc1Cl` [Mdivi1, 3-(2,4-Dichloro-5-methoxyphenyl)-2,3-dihydro-2-thioxo-4(1H)-quinazolinone], the Aβ42 levels result in the test on N2a cells [1] (Aβ42 6 hrs then Mdivi1 24 hrs (Aβ42+Mdivi1, curative)) is on record as “Significantly reduced; also recorded: significantly lower”; in the test on N2a cells [1] (Mdivi1 24 hrs then Aβ42 6 hrs (Mdivi1+Aβ42, preventive)), “Significantly reduced; also recorded: significantly lower”. In addition, the Cytochrome oxidase activity entry was “significantly increased” in the test with N2a cells [2] (Aβ42 6 hrs then Mdivi1 24 hrs (Aβ42+Mdivi1), vs cells treated with Aβ42 alone); “increased levels” with N2a cells [2] (Aβ42 6 hrs then Mdivi1 24 hrs (Aβ42+Mdivi1), vs untreated N2a cells); “increased levels” in the test on N2a cells [2] (setting [4]); “significantly increased” in the test on N2a cells [2] (Mdivi1 24 hrs then Aβ42 6 hrs (Mdivi1+Aβ42), vs cells treated with Aβ42 alone); “increased levels” with N2a cells [2] (Mdivi1 24 hrs then Aβ42 6 hrs (Mdivi1+Aβ42), vs untreated N2a cells). Further, the “Lipid peroxidation levels (4-hydroxy-2-nonenol)” value with N2a cells [3] (Aβ42 6 hrs then Mdivi1 24 hrs (Aβ42+Mdivi1), vs N2a cells treated only with Aβ42) is reported as “Significantly lower”; in the test with N2a cells [3] (setting [4]), “significantly lower”; in the test with N2a cells [3] (Mdivi1 24 hrs then Aβ42 6 hrs (Mdivi1+Aβ42), vs N2a cells treated only with Aβ42) it was “Significantly lower”. The “Mitochondrial ATP levels” value in the test on N2a cell mitochondria (Aβ42 6 hrs then Mdivi1 24 hrs (Aβ42+Mdivi1), vs Aβ42-treated N2a cells (FIG. 7B)) is “Significantly higher”; in the test on N2a cell mitochondria (setting [4]) it was “Significantly increased”; in the test with N2a cell mitochondria (Mdivi1 24 hrs then Aβ42 6 hrs (Mdivi1+Aβ42), vs Aβ42-treated N2a cells (FIG. 7B)), “Significantly higher”.
